From article PMC10879537 (Nature Communications, 2024) come the findings set out here.

In one assay the test system is GX_P2V. Nature of the assay: organism not typed. Format: cell-based, Guangxi pangolin-CoV (GX_P2V). The conditions noted are these: for inhibition at 0.79588 µM / inhibition at 0.193 µM / inhibition at 0.495 µM / inhibition at 0.796 µM / inhibition at 1.097 µM / inhibition at 1.398 µM / inhibition at 1.699 µM / inhibition at 0.49485 µM / inhibition at 1.69897 µM / inhibition at 0.39 µM / inhibition at 0.78 µM / inhibition at 1.09691 µM / inhibition at 1.39794 µM / inhibition at 0.193125 µM: Vero C1008, 48 h, read-out: Percentage of Inhibition (%); for EC50: Vero C1008, read-out: EC50 against GX_P2V.

The next assay concerns Vero E6 cells. As to the kind of experiment: cells. The settings on record: Chlorocebus sabaeus, Vero C1008, 48 h, read-out: Cytoxicity (%).
For a further assay, the system named is SARS-CoV-2 trVLP. Nature of the assay: microbe, parasite or virus in culture. The settings on record: Severe acute respiratory syndrome coronavirus 2, read-out: EC50 against SARS-CoV-2 trVLP.
Assay [1] concerns SARS-CoV-2 live virus (SARS-CoV-2/WH-09/human/2020/CHN). As to the kind of experiment: microbe, parasite or virus in culture. It is filed as cell-based. The conditions noted are these: Severe acute respiratory syndrome coronavirus 2, Vero C1008, read-out: SARS-CoV-2 (Vero E6) EC50.

For `COc1cc2c(cc1O)[C@@H](Cc1ccc(Oc3cc(C[C@@H]4c5cc(O)c(OC)cc5CCN4C)ccc3O)cc1)N(C)CC2` [Compound 32, guatteguamerine], the “Antiviral activity (bioactivity) in dose-response analysis” value with GX_P2V is given as “lacked antiviral activity”.
In the case of `COc1ccc2c(c1O)-c1c(O)c(OC)cc3c1[C@H](C2)[N+](C)(C)CC3` [Magnoflorine], in the assay with GX_P2V, the inhibition at 0.79588 µM turned out to be 34.7%. In the assay on Vero E6 cells, the cytotoxicity at 0.193125 µM stood at 3.29%, the cytotoxicity at 0.39 µM was found to be 1.03%, the cytotoxicity at 0.49485 µM amounted to 8.84% and the cytotoxicity at 0.79588 µM is 10.2%. In the assay with Vero E6 cells, the cytotoxicity at 1.09691 µM was 12.2%, the cytotoxicity at 1.39794 µM amounted to 15.3% and the cytotoxicity at 1.69897 µM was 14.6%.
Consider `COc1ccc(C[C@@H]2c3cc(Oc4cc(C[C@@H]5c6cc(OC)c(OC)cc6CCN5C)ccc4O)c(OC)cc3CCN2C)cc1` [Neferine (33), Neferine], for which, in the assay on GX_P2V, the inhibition at 0.193 µM was found to be 92.5%, the inhibition at 0.495 µM was found to be 91.2%, the inhibition at 0.796 µM is 91.6% and the inhibition at 1.097 µM was 100%. In addition, in the assay with GX_P2V, the inhibition at 1.398 µM is 100%, the inhibition at 1.699 µM came to 100% and the EC50 worked out at 980 nM. For the same compound, the EC50 in the assay on SARS-CoV-2 trVLP was found to be 6240 nM.
Consider `COc1cc2c(cc1O)C(Cc1ccc(O)cc1)NCC2` (stereo not drawn) [Compound 11, coclaurine], for which, in the assay with GX_P2V, the inhibition at 0.49485 µM was found to be 33.2% and the inhibition at 1.69897 µM was 28.7%. Also, the cytotoxicity at 0.193125 µM in the assay on Vero E6 cells was found to be 8.1%.
`COc1cc2c(cc1O)[C@@H]1Cc3ccc(OC)c(O)c3CN1CC2` [(S)-Scoulerine]: the inhibition at 0.49485 µM with GX_P2V worked out at 24.5%. In the assay with Vero E6 cells, the cytotoxicity at 0.193125 µM was 25%, the cytotoxicity at 0.39 µM is 27.5%, the cytotoxicity at 0.49485 µM was found to be 25.7% and the cytotoxicity at 1.09691 µM worked out at 33.9%. For the same compound, the cytotoxicity at 1.69897 µM in the assay with Vero E6 cells stood at 34%.
For the compound `COc1ccc(C[C@H]2c3cc(O)c(OC)cc3CCN2C)cc1O` [Compound 12, reticuline], in the assay with GX_P2V, the inhibition at 0.39 µM is 81.7%, the inhibition at 0.49485 µM worked out at 27.4%, the inhibition at 0.78 µM was determined as 60% and the inhibition at 0.79588 µM stood at 65.7%. Also, in the assay on GX_P2V, the inhibition at 1.09691 µM is 49.6% and the inhibition at 1.39794 µM came to 28.1%.
For the compound `COc1ccc2cc3[n+](cc2c1OC)CCc1cc2c(cc1-3)OCO2` [berberine (2), berberine, reference compound], in the assay with GX_P2V, the inhibition at 0.49485 µM was 52.1%. In the assay with Vero E6 cells, the cytotoxicity at 0.193125 µM was 7.94% and the cytotoxicity at 0.49485 µM worked out at 11.2%.
For `COc1cc2c(cc1OC)C(Cc1ccc(O)c(Oc3cc4c(cc3OC)CCN(C)C4Cc3ccc(O)cc3)c1)N(C)CC2` (stereo not drawn) [Liensinine (34), liensinine], in the assay on GX_P2V, the inhibition at 0.193 µM stood at 93.8%, the inhibition at 0.495 µM amounted to 84.2%, the inhibition at 0.78 µM came out at 68.4% and the inhibition at 0.796 µM came to 74.4%. In addition, in the assay with GX_P2V, the inhibition at 1.097 µM came to 87.3%, the inhibition at 1.398 µM came to 100%, the inhibition at 1.699 µM amounted to 100% and the concentration for a half-maximal effect (EC50) came to 700 nM. The EC50 in the assay on SARS-CoV-2 trVLP was 3090 nM.
With `COc1cc2c(cc1O)-c1cc3ccc(OC)c(OC)c3c[n+]1CC2` [Columbamine], in the assay on GX_P2V, the inhibition at 1.09691 µM came out at 49.9% and the inhibition at 1.39794 µM was 66.7%. Moreover, the cytotoxicity at 0.79588 µM in the assay with Vero E6 cells worked out at 34.5%.
Take `NCCc1ccc(O)c(O)c1` [Compound 4, dopamine, reference compound]: in the assay with GX_P2V, the “Antiviral activity (bioactivity) in dose-response analysis” value is given as “do not”, the inhibition at 0.193125 µM stood at 46.7%, the inhibition at 0.39 µM was found to be 33.8% and the inhibition at 0.49485 µM is 92.6%. Also, in the assay on GX_P2V, the inhibition at 0.79588 µM is 41.1%. In the assay on Vero E6 cells, the cytotoxicity at 0.49485 µM came to 23.1%, the cytotoxicity at 0.78 µM came out at 31.1% and the cytotoxicity at 1.69897 µM was 10.6%.
For the compound `Oc1ccc(C[C@@H]2NCCc3cc(O)c(O)cc32)cc1` [Compound 6, norcoclaurine], in the assay on GX_P2V, the inhibition at 0.39 µM amounted to 55.7%, the inhibition at 0.78 µM was 83.5% and the inhibition at 0.79588 µM stood at 68.5%. In addition, in the assay with Vero E6 cells, the cytotoxicity at 0.193125 µM amounted to 41.2%, the cytotoxicity at 0.39 µM came out at 28.8%, the cytotoxicity at 0.49485 µM stood at 9.98% and the cytotoxicity at 0.79588 µM came out at 52.9%. In addition, the cytotoxicity at 1.09691 µM in the assay with Vero E6 cells came to 10.9%.
`COc1ccc2cc1Oc1ccc(cc1)CC1c3cc(c(OC)cc3CCN1C)Oc1c(OC)c(OC)c(O)c3c1C(C2)N(C)CC3` (stereo not drawn) [Thalidezine (35), thalidezine]: in the assay with GX_P2V, the inhibition at 0.495 µM is 53.4%, the inhibition at 0.796 µM amounted to 99.8%, the inhibition at 1.097 µM is 100% and the inhibition at 1.398 µM is 100%. Moreover, in the assay with GX_P2V, the inhibition at 1.699 µM was found to be 100% and the EC50 amounted to 2740 nM. Further, the EC50 in the assay with SARS-CoV-2 trVLP is 4370 nM.
With `COc1cc2c(cc1O)[C@@H](Cc1ccc(O)cc1)N(C)CC2` [(R)-N-Methylcolaurine], in the assay on GX_P2V, the inhibition at 0.193125 µM turned out to be 25.6%, the inhibition at 0.39 µM is 94.8%, the inhibition at 0.49485 µM turned out to be 55.7% and the inhibition at 0.79588 µM was 56.1%. For the same compound, in the assay on Vero E6 cells, the cytotoxicity at 0.193125 µM amounted to 9.96%, the cytotoxicity at 0.39 µM turned out to be 22.3%, the cytotoxicity at 0.49485 µM is 20.1% and the cytotoxicity at 0.78 µM was 13.4%. For the same compound, in the assay on Vero E6 cells, the cytotoxicity at 0.79588 µM turned out to be 9.7% and the cytotoxicity at 1.39794 µM stood at 23.2%.
For `COc1cc(C[C@H]2c3cc(OC)c(OC)c(OC)c3CCN2C)c(Oc2cc3c(cc2OC)-c2c(OC)c(OC)c(OC)c4c2[C@H](C3)N(C)CC4)cc1OC` [Methoxyadiantifoline (37), methoxyadiantifoline], the “Percentage of Inhibition (%)” value with GX_P2V was determined as 100.000%.
Consider `CCC(CC)COC(=O)[C@H](C)N[P@](=O)(OC[C@H]1O[C@@](C#N)(c2ccc3c(N)ncnn23)[C@H](O)[C@@H]1O)Oc1ccccc1` [Remdesivir (30), remdesivir, reference compound], for which, in the assay on GX_P2V, the inhibition at 0.193 µM is 91.6%, the inhibition at 0.495 µM was determined as 41.5%, the inhibition at 0.796 µM stood at 90.9% and the inhibition at 1.097 µM is 99.8%. For the same compound, in the assay with GX_P2V, the inhibition at 1.398 µM turned out to be 100%, the inhibition at 1.699 µM was determined as 100% and the EC50 is 1640 nM. The EC50 in the assay on SARS-CoV-2 trVLP came out at 110 nM. The EC50 in assay [1] was 2190 nM. Moreover, in the assay with Vero E6 cells, the cytotoxicity at 0.796 µM amounted to 6.65%, the cytotoxicity at 1.097 µM is 10.7%, the cytotoxicity at 1.398 µM amounted to 9.43% and the cytotoxicity at 1.699 µM was determined as 12.3%.
With `COc1ccc2c(c1O)-c1c(O)c(OC)cc3c1[C@H](C2)N(C)CC3` [(S)-corytuberine], in the assay on GX_P2V, the inhibition at 0.39 µM is 54.6% and the inhibition at 0.78 µM stood at 42.8%.
Take `COc1cc2c(cc1O)[C@H](Cc1ccc(O)cc1)N(C)CC2` [(S)-N-Methylcolaurine]: in the assay with GX_P2V, the inhibition at 0.193125 µM is 17.4%, the inhibition at 0.78 µM was 15.1%, the inhibition at 0.79588 µM came to 91.1% and the inhibition at 1.09691 µM worked out at 52.6%. Besides, in the assay with GX_P2V, the inhibition at 1.69897 µM was found to be 20.9%. For the same compound, in the assay on Vero E6 cells, the cytotoxicity at 0.193125 µM was 6.97%, the cytotoxicity at 0.78 µM was determined as 47% and the cytotoxicity at 1.39794 µM amounted to 2.6%.
Consider `COc1cc2c3cc1Oc1cc(ccc1O)C[C@@H]1c4c(cc(OC)c(O)c4Oc4ccc(cc4)C[C@H]3N(C)CC2)CCN1C` [L-curine], for which, in the assay with GX_P2V, the inhibition at 0.49485 µM stood at 81.4%.
